Columns and labels:
CA-IX = target: T1, CA-IX (Homo sapiens, UniProt Q16790); assay: Cellular binding assessment by flow cytometry on CA-IX expressing HT-29 cells; settings: 1 hour 30 min on ice, read-out: CA-IX receptor affinity (KD, to HT-29 cells)
T1 construct: host or cells: HT-29 human colorectal adenocarcinoma cells
Description: Human colon adenocarcinoma HT-29 cells (ATCC) used for the cellular binding experiments were cultured in McCoy's 5A medium (Sigma-Aldrich), supplemented with 10% HyClone Fetal Clone III (Euroclone), 2 mM L-glutamine (Sigma-Aldrich), 100 IU/mL penicillin, 0.1 mg/mL streptomycin, 0.25 μg/mL amphotericin B (Antibiotic-Antimycotic solution, Life Technologies) and cells were grown at 37° C. in humidified atmosphere enriched with 5% CO2. DPBS without MgCl2 and CaCl2 (Sigma-Aldrich) was used for cell rinsing.
Indeed, by using the anti-human CA-IX antibody MAB2188 (R&D Systems) and the DAKO […], according to the instruction of the datasheet, HT-29 cells were estimated to express about 150,000 CA-IX molecules per cell. Thus, HT-29 cells were used to measure the binding of all compounds to CA-IX, expressed in its physiological environment at the cell-surface. Briefly, HT-29 cells were detached with StemPro® Accutase® Cell Dissociation Reagent (Life Technologies), collected in DPBS and counted. At least 2·10^5 cells were placed in 1.5 mL tubes on ice and resuspended in 50-100 μL of cold FACS buffer (eBioscience™ Flow Cytometry Staining Buffer, Invitrogen) containing scalar concentrations of compounds (compound 1: range 1-5 μM; compounds 2 and 3: range 0-20 μM). After incubation (1 hour and 30 min on ice in the dark), cells were rinsed 3 times in 300 μL of cold FACS buffer by centrifugation (5 min, 4° C., 350 RCF), discarding the supernatant. Cell pellets were then resuspended in 200 μL of cold FACS buffer (or in a suitable volume in order to obtain no more than 1000 recorded events per μL during FACS analysis) and analyzed with the flow cytometer Accuri™ C6 (BD Biosciences). The mean cell-associated fluorescence was plotted against concentration and the dissociation constant at equilibrium (Ko) was inferred by mathematical fitting with GraphPad Prism v.9 software, according to the following equation: […]
where Bmax is the maximum specific binding in the same units as Y. KD is the equilibrium dissociation constant, in the same units as X. NS is the slope of nonspecific binding in Y units divided by X units. Background is the amount of nonspecific binding with no added Compound.
All compounds were analyzed in at least three independent experiments. The calculated KD are summarized in Table III and compared with the one obtained for HF-1.

HT-29 colorectal tumor = assay: In vivo optical imaging of HT-29 tumor bearing mice (tumor-to-background ratio); settings: 1 nmol/mouse intravenous, 24 hours after administration; tumor vs hind limb muscle
Description: HT-29 cells were collected and washed once with serum-free medium. Five million HT-29 cells were suspended in 0.1 mL serum-free medium and injected subcutaneously in the right flank of 5 weeks old mice. Tumor development was followed by caliper measurement twice a week, from 7 days after inoculation. Tumor volume was calculated according to the formula: (L*W2)/2, where L and W are the maximum length and width of the tumor.
Optical Imaging experiments on HT-29 tumor bearing animals were performed after administration of HF-1, as reference compound, and compounds 1, 2 and 3, all at a dose of 1 nmol/mouse in an administration volume of 0.1 mL (corresponding to about 5 mL/kg, considering a 20 g-mouse) at an injection rate of about 1 mL/min, by the IVIS Spectrum system when the tumor reached at least 200 mm^3 volume.
For each group, in vivo OI experiments were performed at 0.5, 1, 2, 3, 4, 6 and 24 hours after intravenous administration of the fluorescent compounds. During imaging experiments animals were maintained under gaseous anesthesia. Regions of interest (ROIs) were drawn on the tumor and on a reference background healthy region (hind limb muscle) of the mouse for each fluorescence image at every time point to evaluate signal intensity in the tissues (expressed as Average Radiant Efficiency). The ratio between the fluorescence signal in the tumor and in the background healthy tissue (tumor-to-background ratio, TBR) was then calculated to assess the contrast.
All the compounds of the invention and HF-1 were tested at a dose of 1 nmol/mouse.

[1] = Ex vivo biodistribution, organ-to-muscle ratio; type: in vivo, mice; settings: 1 nmol/mouse, 24 hours after administration
Description: The ex vivo biodistribution of the representative compounds 1, 2 and 3 and of the reference compound HF-1 (at 1 nmol/mouse) was evaluated in HT-29 excised tumors and tissues at the end of the in vivo OI sessions 24 hours post intravenous administration. At the end of the in vivo experiment, animals were euthanized by overdose of gaseous anesthesia followed by cervical dislocation. Tumor tissue, muscle, and other organs of interest were removed for ex vivo fluorescent signal measurements. The fluorescence signal intensity was measured by the IVIS Spectrum system. Regions of interest (ROIs) were drawn around each organ and tumor using the Living Image Software (PerkinElmer) and evaluating signal intensity in the tissues (expressed as Average Radiant Efficiency). The ratio between the fluorescence signal in the organs and tumor was then calculated to assess the contrast to hind limb muscle (representing the background).
Moreover, FIG. 6 (b) and Table VIII show the accumulation and distribution of the fluorescent probes in the dissected organs, reporting the ex vivo values of organs-to-muscle ratio from samples collected at 24 hours after the administration of representative compounds 1, 2 and 3 and of the reference compound HF-1 (1 nmol/mouse).

Kd (CA-IX) [nM]	Organ-to-muscle ratio, intestine [1]	Organ-to-muscle ratio, kidney [1]	Organ-to-muscle ratio, liver [1]	Organ-to-muscle ratio, skin [1]	Organ-to-muscle ratio, spleen [1]	Organ-to-muscle ratio, stomach [1]	Compound	in vivo TBR (mean ± SD) (HT-29 colorectal tumor)
68 ± 4	1.5 ± 0.3	8.3 ± 1.9	3.3 ± 1.1	1.1 ± 0.2	0.5 ± 0.1	11.3 ± 3.2	CC1(C)C(/C=C/C=C/C=C/C=C2/N(CCCCS(=O)(=O)O)c3ccc(C(=O)NC[C@H](O)[C@@H](O)[C@H](O)[C@H](O)CO)cc3C2(C)C)=[N+](CCCCS(=O)(=O)[O-])c2ccc(C(=O)NCCCCCCCC(=O)Nc3nnc(S(N)(=O)=O)s3)cc21 [Compound 1]	5.9 ± 1.2
54 ± 3	1.2 ± 0.1	4.0 ± 1.7	2.7 ± 0.4	1.6 ± 0.4	1.0 ± 0.1	7.1 ± 1.2	CC1(C)C(/C=C/C=C/C=C/C=C2/N(CCCCS(=O)(=O)O)c3ccc(S(=O)(=O)O)cc3C2(C)C)=[N+](CCCCS(=O)(=O)[O-])c2ccc(C(=O)NCCCCCCCC(=O)Nc3nnc(S(N)(=O)=O)s3)cc21 [Compound 2]	5.1 ± 1.9
62 ± 4	1.5 ± 0.2	4.7 ± 1.6	3.1 ± 0.6	1.0 ± 0.1	1.0 ± 0.1	3.5 ± 0.3	CC1(C)C(/C=C/C2=C(Oc3ccc(S(=O)(=O)O)cc3)C(=C/C=C3/N(CCCCS(=O)(=O)O)c4ccc(S(=O)(=O)O)cc4C3(C)C)/CCC2)=[N+](CCCCS(=O)(=O)[O-])c2ccc(C(=O)NCCCCCCCC(=O)Nc3nnc(S(N)(=O)=O)s3)cc21 [Compound 3]	2.2 ± 0.6

Source: patent US20250352675A1, “CA-IX TARGETING FLUORESCENT PROBES” (BRACCO IMAGING S.P.A., priority 2022, published 2025)
